{"source": "patent US6255337A", "about": "“Anti-first-pass effect compounds and citrus extract” (Bioavailability Systems, L.L.C., priority 1999, dated 2001)", "key": {"[1]": {"test_system": "human cytochrome P450", "experiment": "Protocol C: Assessment of human cytochrome P450-mediated biotransformation (terfenadine, human hepatic S9)", "assay_type": "in vitro ADME", "experimental": "The process of preparing incubation mixtures begins by mixing 10 uL of ethanol or an ethanolic solution containing an inhibitor with 100 uL of 100 mg/mL bovine serum albumin (Sigma) dissolved in reaction buffer at room temperature. Reaction buffer is composed of 0.10 M sodium phosphate, 1.0 mM ethylenediaminetetraacetic acid, and 5.0 mM magnesium chloride, pH 7.4 (all reagents: Fisher Scientific). Inhibitory chemicals used were ketoconazole (Research Diagnostics, Inc.), miconazole, bergapten, xanthotoxin (previous three from Sigma), bergamotin, imperatorin, isopimpinellin, psoralen, angelicin (previous five from Indofine Chemical Company, Inc.), and fractions or precipitates resulting from Protocols A and B above. When possible, final inhibitor concentrations were expressed in molarity by calculation from the weighed material or by interpolation from HPLC calibration curves prepared with reference materials; otherwise, concentrations are expressed as weight per volume. Reaction tubes are placed on ice in preparation for the manipulations that follow. Sufficient reaction buffer is added so that the final volume of each tube will be 500 uL, 5 uL of a 100-fold concentrate for generating reduced nicotinamide adenine dinucleotide phosphate is added (such that completed reaction mixture contains 1.0 mM nicotinamide adenine dinucleotide phosphate, 1 U/mL glucose-6-phosphate dehvdrogenase, and 10 mM glucose-6-phosphate; all from Sigma), and then human hiepatic S9 (Anatomic Gift Foundation) is thawed and added in sufficient amounts to cause readily detectable amounts of metabolites to be formed in control reactions (amount necessary varies among individuals, but 10 uL is typical).\nThe samples prepared above are readied for HPLC assessment using the protocol that follows. Each tube is vortex mixed and centrifuged for 10 min at setting 35, the resulting supernatant is transferred to a clean tube, and the liquid is evaporated using a Speed Vac apparatus. The residue in each tube is first dissolved in 40 uL 1:1 acetonitrile:water, 2.5 mL of acetonitrile is added, and the centrifuge-transfer-evaporate step just described is repeated.\nThe dry residue resulting from the above-described experiments and sample preparation protocol may be analyzed for terfienadine metabolites using the HPLC method described below and may also be used to quantitate the inhibitory chemicals that were added to the reaction (see Protocol B). Linear gradients are used for elution and are formed by mixing mobile phase A composed of water with mobile phase B composed of 0.025% (v/v) formic acid in acetonitrile (instrument: Hewlett Packard). The elution time, in minutes, the percentage of mobile phase B present in the mixed mobile phase, and the flow rate (mL/min) are as follows: 0, 10, 0.10; 2, 10, 0.10; 3.5, 10, 0.20; 4, 10, 0.25; 5, 10, 0.25; 30, 55, 0.25; 32, 98, 0.25; 33, 98, 0.40; 39.8, 98, 0.40; 40, 98, 0.25; 45, 10, 0.25; 45.25, 10, 0.20; 50, 10, 0.20; 50.25, 10, 0.10. The chromatographic column has dimensions of 150 mm length×2.1 mm internal diameter. is packed with a proprietary material (Prism, Keystone Scientific, Inc.), is protected with a 2 mm internal diameter column containing the same material and with a PTFE filter, and is maintained at 35+/-0.2 C. The dry sample residue is mixed with 60 uL of 1:1 acetonitrile:water followed by 40 uL water just prior to each 50.25 min run cycle. The column eluate from each 10 uL injection is monitored for fluorescence with excitation at 228 nm, emission at 291 nm, and bandpass filtration at 280 nm."}, "[2]": {"conditions": "in words; cited from earlier work"}, "[3]": {"test_system": "first-pass effect", "conditions": "orally administered drugs; in words; cited from earlier work"}, "[4]": {"test_system": "first-pass effect of cyclosporin", "conditions": "heart transplant patients, cyclosporin co-administered with ketoconazole; cited from earlier work"}, "[5]": {"test_system": "cytochrome P450", "conditions": "given to humans in large doses; in words; cited from earlier work"}, "[6]": {"conditions": "with inhibitors commonly given to humans; in words; cited from earlier work"}}, "note": "Entries after “also recorded” stand apart in the source; their conditions may differ. Like-named read-outs stand apart in the source and are kept apart here.", "data": [{"smiles": "O=c1ccc2ccc3occc3c2o1", "note": "[angelicin]", "values": [{"measurement": "first-pass effect inhibition (determined herein)", "setting": "[1]; in words", "result": "ineffective"}]}, {"smiles": "CC(C)=CCC/C(C)=C/COc1c2ccoc2cc2oc(=O)ccc12", "note": "[bergamottin]", "values": [{"measurement": "first-pass effect inhibition (determined herein)", "setting": "[1]", "result": "ineffective"}]}, {"smiles": "COc1c2ccoc2cc2oc(=O)ccc12", "note": "[bergapten, 5-methoxypsoralen]", "values": [{"measurement": "toxicity / phototoxicity", "setting": "[2]", "result": "toxic, in particular, phototoxic"}]}, {"smiles": "CC[C@H]1OC(=O)[C@H](C)[C@@H](O[C@H]2C[C@@](C)(OC)[C@@H](O)[C@H](C)O2)[C@H](C)[C@@H](O[C@@H]2O[C@H](C)C[C@H](N(C)C)[C@H]2O)[C@](C)(O)C[C@@H](C)C(=O)[C@H](C)[C@@H](O)[C@]1(C)O", "note": "[erythromycin]", "values": [{"measurement": "inhibition of the first-pass effect", "setting": "[3]", "result": "identified as inhibitors of the first-pass effect"}]}, {"smiles": "OC(Cn1cncn1)(Cn1cncn1)c1ccc(F)cc1F", "note": "[fluconazole]", "values": [{"measurement": "inhibition of the first-pass effect", "setting": "[3]", "result": "identified as inhibitors of the first-pass effect"}]}, {"smiles": "CC(C)=CCOc1c2occc2cc2ccc(=O)oc12", "note": "[imperatorin]", "values": [{"measurement": "first-pass activity according to Protocol C", "setting": "[1]; 2000 nM, in words", "result": "non-first-pass inhibiting"}, {"measurement": "first-pass effect inhibition (determined herein)", "setting": "[1]; in words", "result": "ineffective"}]}, {"smiles": "COc1c2ccoc2c(OC)c2oc(=O)ccc12", "note": "[isopimpinellin]", "values": [{"measurement": "first-pass effect inhibition (determined herein)", "setting": "[1]; in words", "result": "ineffective"}]}, {"smiles": "CCC(C)n1ncn(-c2ccc(N3CCN(c4ccc(OCC5COC(Cn6cncn6)(c6ccc(Cl)cc6Cl)O5)cc4)CC3)cc2)c1=O", "note": "(stereo not shown) [itraconazole]", "values": [{"measurement": "inhibition of the first-pass effect", "setting": "[3]", "result": "identified as inhibitors of the first-pass effect"}]}, {"smiles": "CC(=O)N1CCN(c2ccc(OCC3COC(Cn4ccnc4)(c4ccc(Cl)cc4Cl)O3)cc2)CC1", "note": "(stereo not shown) [ketoconazole]", "values": [{"measurement": "inhibition of the first-pass effect", "setting": "[3]", "result": "inhibition of the first-pass effect of cyclosporin; also recorded: identified as inhibitors of the first-pass effect"}, {"measurement": "reduction of the dose of cyclosporin required", "setting": "[4]", "result": "approximately 85%"}]}, {"smiles": "Clc1ccc(COC(Cn2ccnc2)c2ccc(Cl)cc2Cl)c(Cl)c1", "note": "(stereo not shown) [miconazole]", "values": [{"measurement": "inhibition of the first-pass effect", "setting": "[3]", "result": "identified as inhibitors of the first-pass effect"}]}, {"smiles": "O=c1ccc2cc3ccoc3cc2o1", "note": "[psoralen]", "values": [{"measurement": "inhibition of cytochrome P450", "setting": "[5]", "result": "do inhibit cvtochrome P450"}, {"measurement": "first-pass effect inhibition (determined herein)", "setting": "[1]; in words", "result": "ineffective"}, {"measurement": "toxicity / phototoxicity", "setting": "[2]", "result": "toxic, in particular, phototoxic"}]}, {"smiles": "CC(C)c1nc(CN(C)C(=O)N[C@H](C(=O)N[C@@H](Cc2ccccc2)C[C@H](O)[C@H](Cc2ccccc2)NC(=O)OCc2cncs2)C(C)C)cs1", "note": "[ritonavir]", "values": [{"measurement": "inhibition of the first-pass effect", "setting": "[3]", "result": "identified as inhibitors of the first-pass effect"}]}, {"smiles": "Cc1nnc2n1-c1ccc(Cl)cc1C(c1ccccc1Cl)=NC2", "note": "[triazolam]", "values": [{"measurement": "increase of bioavailability by inhibitors", "setting": "[6]", "result": "bioavailability is increased by inhibitors"}]}, {"smiles": "CO[C@H]1C[C@H](O[C@H]2[C@H](C)[C@@H](O[C@@H]3O[C@H](C)C[C@H](N(C)C)[C@H]3OC(C)=O)[C@@H](C)C[C@@]3(CO3)C(=O)[C@H](C)[C@@H](OC(C)=O)[C@@H](C)[C@@H](C)OC(=O)[C@@H]2C)O[C@@H](C)[C@@H]1OC(C)=O", "note": "[troleandomycin]", "values": [{"measurement": "inhibition of the first-pass effect", "setting": "[3]", "result": "identified as inhibitors of the first-pass effect"}]}, {"smiles": "COc1c2occc2cc2ccc(=O)oc12", "note": "[xanthotoxin, 8-methoxypsoralen]", "values": [{"measurement": "toxicity / phototoxicity", "setting": "[2]", "result": "toxic, in particular, phototoxic"}]}]}
